Measurements published in patent US10508085B2, “Compounds and methods for IDO and TDO modulation, and indications therefor” (Plexxikon Inc., priority 2016, dated 2019).
Where two headings read alike, the source gives them in different places.

Legend:
[1] = biological target: T1, Human Indoleamine 2,3-dioxygenase (IDO) (Homo sapiens, UniProt P14902); test: Human IDO enzymatic assay (kynurenine level); type: biochemical; conditions: 6 nM IDO, 10 μM L-Trp; geometric mean; read-out: IDO1 GMean: IC50 (μM) (Biochemical Assay)
T1 construct: His tag (N); made in house; host or cells: E. coli
T1 sequence (P14902 whole entry): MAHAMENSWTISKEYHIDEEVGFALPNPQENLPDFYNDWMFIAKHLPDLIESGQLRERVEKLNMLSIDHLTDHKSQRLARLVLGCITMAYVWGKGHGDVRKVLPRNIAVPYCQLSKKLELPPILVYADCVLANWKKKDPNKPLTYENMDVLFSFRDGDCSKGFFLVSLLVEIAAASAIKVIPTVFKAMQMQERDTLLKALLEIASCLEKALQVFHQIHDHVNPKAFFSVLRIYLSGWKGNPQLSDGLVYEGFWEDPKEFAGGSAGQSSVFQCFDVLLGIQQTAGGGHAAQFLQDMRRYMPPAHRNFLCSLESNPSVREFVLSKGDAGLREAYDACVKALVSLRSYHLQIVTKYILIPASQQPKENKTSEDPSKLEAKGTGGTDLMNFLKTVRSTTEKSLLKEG
Procedure, shortened: (§1)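 IDO conditions: 6 nM His-IDO, 10 μM L-Trp, 5 μM methylene blue, 20 min, RT. TDO conditions: 1 nM His-TDO, 350 μM L-Trp, 0.4 μM methylene blue, 70 min, RT. Both used pH 6.5 phosphate plus ascorbate/catalase, TCA stop at 50° C, kynurenine readout, nonlinear-regression IC50.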

[2] = biological target: T2, Human Tryptophan 2,3-dioxygenase (TDO) (Homo sapiens, UniProt P48775); test: Human TDO enzymatic assay (kynurenine level); type: biochemical; conditions: 1 nM TDO, 350 μM L-Trp; geometric mean; read-out: TDO GMean: IC50 (μM) (Biochemical Assay)
T2 construct: His tag (N); made in house; host or cells: E. coli
T2 sequence (P48775 whole entry): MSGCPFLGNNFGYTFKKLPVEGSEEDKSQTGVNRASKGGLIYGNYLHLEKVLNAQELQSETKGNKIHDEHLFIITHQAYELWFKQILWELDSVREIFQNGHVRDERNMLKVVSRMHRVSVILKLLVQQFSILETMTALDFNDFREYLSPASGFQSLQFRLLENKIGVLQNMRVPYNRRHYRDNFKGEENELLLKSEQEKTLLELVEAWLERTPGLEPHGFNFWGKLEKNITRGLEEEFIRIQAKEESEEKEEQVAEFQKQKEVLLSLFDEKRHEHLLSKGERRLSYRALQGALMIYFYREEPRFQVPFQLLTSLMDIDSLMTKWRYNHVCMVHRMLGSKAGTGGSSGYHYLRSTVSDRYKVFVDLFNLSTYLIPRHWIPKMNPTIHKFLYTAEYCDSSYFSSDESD
Procedure, shortened: as §1

[3] = biological target: T3, human IDO (IDO1-expressing HEK293 cells) (Homo sapiens, UniProt P14902); test: Cell based kynurenine assay, IDO1-expressing HEK293 cell clones; conditions: IDO1-expressing HEK293 cells, geometric mean, read-out: HEK293 IDO1 Kynurenine GMean IC50 (μM) (Cellular Assay)
T3 construct: expressed in transfected cells
T3 sequence (P14902 whole entry): as the sequence (P14902 whole entry) above
Procedure, shortened: (§2)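 Supernatant kynurenine was measured after 24 h exposure of stably transfected HEK293 cells (human IDO1 or TDO, 2.5×10^4/well) to serially diluted compound. Percent inhibition used 0.2% DMSO cell wells as high and media-only wells as low controls; IC50 fitted by nonlinear regression.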

[4] = biological target: T4, human TDO (TDO-expressing HEK293 cells) (Homo sapiens, UniProt P48775); test: Cell based kynurenine assay, TDO-expressing HEK293 cell clones; conditions: TDO-expressing HEK293 cells, geometric mean, read-out: HEK293 TDO Kynurenine GMean IC50 (μM) (Cellular Assay)
T4 construct: expressed in transfected cells
T4 sequence (P48775 whole entry): as the sequence (P48775 whole entry) above
Procedure, shortened: as §2

Measured: IC50

CC(C)(C)OC(=O)N1CCC(C(C)(C)C(O)c2c(F)c(Cl)cc3cn[nH]c23)CC1 (stereo not drawn) [Compound P-0370, tert-butyl 4-(1-(5-chloro-6-fluoro-1H-indazol-7-yl)-1-hydroxy-2-methylpropan-2-yl)piperidine-1-carboxylate]
0.0001 to 10 µM: [1] | [2] | [3]; 24 hours incubation | [4]; 24 hours incubation

OC(c1cc(Cl)cc2cn[nH]c12)C1CC2CCC1C2 (stereo not drawn) [Compound P-0240, bicyclo[2.2.1]heptan-2-yl(5-chloro-1H-indazol-7-yl)methanol]
0.0001 to 10 µM: [1] | [2] | [3]; 24 hours incubation | [4]; 24 hours incubation

COC(=O)N1CCC(C(F)(F)C(O)c2cc(Cl)cc3cn[nH]c23)CC1 (stereo not drawn) [Compound P-0141, methyl 4-(2-(5-chloro-1H-indazol-7-yl)-1,1-difluoro-2-hydroxyethyl)piperidine-1-carboxylate]
0.0001 to 10 µM: [1] | [2] | [3]; 24 hours incubation | [4]; 24 hours incubation

CC(C)(C1CCN(C(=O)Cc2ccc(F)c(Cl)c2)CC1)[C@H](O)c1cc(Cl)cc2cn[nH]c12 [Compound P-0519, (S)-1-(4-(1-(5-chloro-1H-indazol-7-yl)-1-hydroxy-2-methylpropan-2-yl)piperidin-1-yl)-2-(3-chloro-4-fluorophenyl)ethan-1-one]
0.0001 to 10 µM: [1] | [2] | [3]; 24 hours | [4]; 24 hours

CC(=O)N1CCC(C2(C(O)c3cc(Cl)cc4cn[nH]c34)CC2)CC1 (stereo not drawn) [Compound P-0130, 1-(4-(1-((5-chloro-1H-indazol-7-yl)(hydroxy)methyl)cyclopropyl)piperidin-1-yl)ethan-l-one]
0.0001 to 10 µM: [1] | [2] | [3]; 24 hours incubation | [4]; 24 hours incubation

CC(C)(c1ccccc1)C(O)c1cc(Cl)cc2cn[nH]c12 (stereo not drawn) [Compound P-0027, 1-(5-chloro-1H-indazol-7-yl)-2-methyl-2-phenylpropan-1-ol]
0.0001 to 10 µM: [1] | [2] | [3]; 24 hours incubation | [4]; 24 hours incubation

O=C(Nc1ccc(F)cc1)N1CCC(C2(C(O)c3cc(Cl)cc4cn[nH]c34)CC2)CC1 (stereo not drawn) [Compound P-0157, 4-(1-((5-chloro-1H-indazol-7-yl)(hydroxy)methyl)cyclopropyl)-N-(4-fluorophenyl)piperidine-1-carboxamide]
0.0001 to 10 µM: [1] | [2] | [3]; 24 hours incubation | [4]; 24 hours incubation

OC(c1cc(Cl)cc2cn[nH]c12)C(F)(F)C1(O)CCC1 (stereo not drawn) [Compound P-0289, 1-(2-(5-chloro-1H-indazol-7-yl)-1,1-difluoro-2-hydroxyethyl)cyclobutan-1-ol]
0.0001 to 10 µM: [1] | [2] | [3]; 24 hours incubation | [4]; 24 hours incubation

CC(C)(C1CCN(C(=O)NCCNS(C)(=O)=O)CC1)C(O)c1cc(Cl)cc2cn[nH]c12 (stereo not drawn) [Compound P-0493, 4-(1-(5-chloro-1H-indazol-7-yl)-1-hydroxy-2-methylpropan-2-yl)-N-(2-(methylsulfonamido)ethyl)piperidine-1-carboxamide]
0.0001 to 10 µM: [1] | [2] | [3]; 24 hours | [4]; 24 hours
